In experiment [1] the test system is fluorouracil-induced neutropenia. As to conditions: liposomal formulation of Example 4; 35 mg/kg i.v., 8 daily injections after fluorouracil 125 mg/kg i.p.; male CD rats. How it is done:
Male CD rats (250–300 g) were injected intraperitoneally with either the antineoplastic drug, fluorouracil (125 mg/kg) or an equivalent volume of its vehicle (saline). […] Rats originally injected with saline rather than fluorouracil received saline intravenously (n=7). Blood samples were taken for measurement of neutrophil levels prior to the fluorouracil and every 1 to 2 days thereafter for 14 days.

The test system of experiment [2] is circulating neutrophil levels. As to conditions: liposomal formulation of Example 4; 35 mg/kg i.v., 5 daily injections; normal male CD rats. From the text:
Blood samples were taken for measurement of neutrophil levels daily.

Consider “γ-Glutamyl-S(benzyl)cysteinyl-R-phenyl glycine diethyl ester hydrochloride [Compound 9]”, for which the “recovery from chemotherapy-induced neutropenia” value in experiment [1] is “accelerated recovery”. Also, the circulating neutrophil levels result in experiment [2] is “increased”.

(Values after US7029695B2, “Therapeutic compositions containing glutathione analogs” (Telik, Inc., priority 2001, dated 2006).)
